# Measurements: patent publication US10030036B2, “Method and dyes for detecting and destroying cancer cells” (Lahjavida, LLC, priority 2009, dated 2018)
# Assay: near infrared fluorescent spectral properties
# Assay type: physicochemical
# Text: Some of these compounds in formula 1-8 and the compounds shown in Scheme 1 have variable water solubility, near infrared fluorescent spectral properties suitable for in-vivo tissue imaging (e.g. MHI-148 has λmax absorption 780 nm and high intensity λmax emission 800 nm (FIG. 1)), and have been tested to have similar activities in near infrared fluorescent imaging of tumor cells and inhibiting tumor cell growth in vitro, and permit selective destruction of any gold labeled cancer cells via radiofrequency treatment. The solubility of the labeled gold particles may be controlled by the dye molecules attached to the surface of gold particles or by additional solubilization groups attached to the gold particle surface as it is described by the literature or by prior art. Biodistribution of these gold particles are determined by the molecules attached to the gold particle surface and particle size.
smiles,measurement,setting,value
CC1(C)C(/C=C/C2=C(Cl)C(=C/C=C3\Cc4ccccc4N3CCCCCC(=O)O)/CCC2)=[N+](CCCCCC(=O)O)c2ccccc21 [MHI-148],λmax absorption,,780 nm
same,λmax emission,high intensity,800 nm
